From patent US3932382A, “Dideoxybutirosin derivative” (Sankyo Company Limited, priority 1973, dated 1976)
Converted amounts (≈) assume the structure as drawn. Like-named read-outs stand apart in the source and are kept apart here.

Experiments:
E. coli 665 [1] = experiment: Protecting Effects in Mice (Table II); assay type: in vivo; details: 2 doses subcutaneously at 0 and 4 hours post-infection, butirosin-resistant strain
Text: (§1) Protecting Effects of 3',4'-Dideoxybutirosin A in Mice
ED50 : mg./kg./dose (2 doses subcutaneously at 0 and
*Butirosin-resistant strain

[2] = for Death incidence: mouse, in vivo
Text: Acute Toxicities of 3',4'-Dideoxybutirosin A
Mice : ddY strain, male, 20 ± 0.2 g.

[3] = system: Staphylococcus aureus 209P; experiment: Minimum Inhibitory Concentration (Table I); assay type: cell-based; details: Heart-Infusion Agar
Text: (§2) Minimum Inhibitory Concentration of 3',4'-
(§3) Medium : Heart-Infusion Agar

[4] = system: Pseudomonas aeruginosa Scr.; experiment: Minimum Inhibitory Concentration (Table I); assay type: cell-based; details: Heart-Infusion Agar
Text: as §2, §3

Klebsiella 806 = experiment: Minimum Inhibitory Concentration (Table I); assay type: cell-based; details: Heart-Infusion Agar
Text: as §2, §3

[5] = system: Bacillus subtilis P C I-219; experiment: Minimum Inhibitory Concentration (Table I); assay type: cell-based; details: PCI219, Heart-Infusion Agar
Text: as §2, §3

Escherichia coli N I H J = experiment: Minimum Inhibitory Concentration (Table I); assay type: cell-based; details: Heart-Infusion Agar
Text: as §2, §3

Proteus vulgaris 025 = experiment: Minimum Inhibitory Concentration (Table I); assay type: cell-based; details: Heart-Infusion Agar
Text: as §2, §3

Salmonela enteritidis = experiment: Minimum Inhibitory Concentration (Table I); assay type: cell-based; details: Heart-Infusion Agar
Text: as §2, §3

Staph. aureus 56 = experiment: Minimum Inhibitory Concentration (Table I); assay type: cell-based; details: Staphylococcus aureus, Heart-Infusion Agar
Text: as §2, §3

Shigella flexneri 2a = experiment: Minimum Inhibitory Concentration (Table I); assay type: cell-based; details: Heart-Infusion Agar
Text: as §2, §3

E. coli 620 = experiment: Minimum Inhibitory Concentration (Table I); assay type: cell-based; details: Escherichia coli, Heart-Infusion Agar, butirosin-resistant bacteria
Text: as §2
(§4) Mark *means butirosin-resistant bacteria
as §3

E. coli 665 [6] = experiment: Minimum Inhibitory Concentration (Table I); assay type: cell-based; details: Escherichia coli, Heart-Infusion Agar, butirosin-resistant bacteria
Text: as §2, §4, §3

[7] = system: Pseudomonas aeruginosa 1055; experiment: Minimum Inhibitory Concentration (Table I); assay type: cell-based; details: Heart-Infusion Agar, butirosin-resistant bacteria
Text: as §2, §4, §3

[8] = system: E. coli clinical isolates (125 strains); experiment: Susceptibility of Clinical Isolates (Table III); assay type: cell-based; details: of 125 strains
Text: (§5) Susceptibility of Clinical Isolates to 3',4'-

[9] = system: P. aeruginosa clinical isolates (102 strains); experiment: Susceptibility of Clinical Isolates (Table III); assay type: cell-based; details: of 102 strains
Text: as §5

[10] = system: butirosin-resistant bacteria; experiment: Antibacterial activity against butirosin-resistant bacteria, statement; assay type: cell-based
Text: as §2, §4, §3

[11] = system: butirosin sensitive strains; experiment: Antibacterial activity against butirosin sensitive strains, statement; assay type: cell-based
Text: as §2, §3

[12] = system: gram-positive and -negative bacteria; experiment: Antibacterial activity, general statement; assay type: cell-based
E. coli 704-1 = experiment: Protecting Effects in Mice (Table II); assay type: in vivo; details: 2 doses subcutaneously at 0 and 4 hours post-infection
Text: as §1
ED50 : mg./kg./dose (2 doses subcutaneously at 0 and […]

NCC[C@H](O)C(=O)N[C@@H]1C[C@H](N)[C@@H](O[C@H]2O[C@H](CN)CC[C@H]2N)[C@H](O[C@@H]2O[C@H](CO)[C@H](O)[C@H]2O)[C@H]1O [3',4'-Dideoxybutirosin A]
ED50 (E. coli 665 [1]; Escherichia coli, 665, sc, read-out: ED50): 2.43 mg/kg
toxicity ([2]; as compared with the prior similar aminoglycoside antibiotics): considerably low toxicity
Death incidence ([2]; iv, 250 mg/kg): 0/3
Death incidence ([2]; iv, 500 mg/kg): 1/2
Death incidence ([2]; sc, 2000 mg/kg): 0/3
MIC [3]: 0.1 µg/mL (≈ 0.191 µM)
MIC [4]: 3.1 µg/mL (≈ 5.92 µM)
MIC (Klebsiella 806): 0.8 µg/mL (≈ 1.53 µM)
MIC [5]: 0.1 µg/mL (≈ 0.191 µM)
MIC (Escherichia coli N I H J): 0.4 µg/mL (≈ 0.764 µM)
MIC (Proteus vulgaris 025): 0.8 µg/mL (≈ 1.53 µM)
MIC (Salmonela enteritidis): 1.5 µg/mL (≈ 2.86 µM)
MIC (Staph. aureus 56): 0.4 µg/mL (≈ 0.764 µM)
MIC (Shigella flexneri 2a): 3.1 µg/mL (≈ 5.92 µM)
MIC (E. coli 620): 3.1 µg/mL (≈ 5.92 µM)
MIC (E. coli 665 [6]): 3.1 µg/mL (≈ 5.92 µM)
MIC [7]: 6.2 µg/mL (≈ 11.8 µM)
number of strains with MIC 0.8 mcg./ml. ([8]; MIC 0.8 mcg./ml.): 0 strains
number of strains with MIC 1.5 mcg./ml. ([8]; MIC 1.5 mcg./ml.): 0 strains
number of strains with MIC 3.1 mcg./ml. ([8]; MIC 3.1 mcg./ml.): 0 strains
number of strains with MIC 6.2 mcg./ml. ([8]; MIC 6.2 mcg./ml.): 6 strains
number of strains with MIC 12.5 mcg./ml. ([8]; MIC 12.5 mcg./ml.): 100 strains
number of strains with MIC 25 mcg./ml. ([8]; MIC 25 mcg./ml.): 15 strains
number of strains with MIC 50 mcg./ml. ([8]; MIC 50 mcg./ml.): 2 strains
number of strains with MIC 100 mcg./ml. ([8]; MIC 100 mcg./ml.): 2 strains
number of strains with MIC 200 mcg./ml. ([8]; MIC 200 mcg./ml.): 0 strains
number of strains with MIC >200 mcg./ml. ([8]; MIC >200 mcg./ml.): 0 strains
number of strains with MIC 0.8 mcg./ml. ([9]; MIC 0.8 mcg./ml.): 1 strains
number of strains with MIC 1.5 mcg./ml. ([9]; MIC 1.5 mcg./ml.): 3 strains
number of strains with MIC 3.1 mcg./ml. ([9]; MIC 3.1 mcg./ml.): 5 strains
number of strains with MIC 6.2 mcg./ml. ([9]; MIC 6.2 mcg./ml.): 20 strains
number of strains with MIC 12.5 mcg./ml. ([9]; MIC 12.5 mcg./ml.): 41 strains
number of strains with MIC 25 mcg./ml. ([9]; MIC 25 mcg./ml.): 21 strains
number of strains with MIC 50 mcg./ml. ([9]; MIC 50 mcg./ml.): 3 strains
number of strains with MIC 100 mcg./ml. ([9]; MIC 100 mcg./ml.): 5 strains
number of strains with MIC 200 mcg./ml. ([9]; MIC 200 mcg./ml.): 2 strains
number of strains with MIC >200 mcg./ml. ([9]; MIC >200 mcg./ml.): 1 strains
activity against butirosin-resistant bacteria [10]: an activity against butirosin -resistant bacteria
activity against butirosin-resistant bacteria ([10]; listed as 3', 4'-dideoxybutirosin A (I)): outstanding activities
activities against butirosin sensitive strains [11]: outstanding activities
antibacterial activities [12]: broad antibacterial activities
ED50 (E. coli 704-1; Escherichia coli, 7041, sc, read-out: ED50): 2.3 mg/kg

Butirosin [reference compound]
ED50 (E. coli 665 [1]): 146.3 mg./kg./dose
ED50 (E. coli 704-1): 2.47 mg./kg./dose
